From patent publication US7687071B1, “Nanoparticulate core shell systems and the use thereof in pharmaceutical and cosmetic preparation” (BASF Aktiengesellschaft, priority 1998, dated 2010)

Assay: Wide-angle X-ray scattering
Format: physicochemical
Details: FIG. 1
Excerpt: The scattering plots for active ingredient (top) and dry powder from 1b) (bottom) are depicted in FIG. 1. The ritonavir starting material is crystalline, as proven by the X-ray diagram which is characterized by a number of sharp interferences. […] This also applies to the ancillary substances lactose and ascorbyl palmitate which are otherwise crystalline.

- solid state by X-ray scattering plot: crystalline
SMILES: CC(C)c1nc(CN(C)C(=O)N[C@H](C(=O)N[C@@H](Cc2ccccc2)C[C@H](O)[C@H](Cc2ccccc2)NC(=O)OCc2cncs2)C(C)C)cs1 [ritonavir]
